Data on five molecules can be found in ChEMBL document CHEMBL1135641, “Antitumor agents. 217. Curcumin analogues as novel androgen receptor antagonists with potential as anti-prostate cancer agents” (J Med Chem, 2002).

Test [1] deals with T1, Androgen receptor (Homo sapiens) (UniProt P10275).
T1 sequence (whole entry): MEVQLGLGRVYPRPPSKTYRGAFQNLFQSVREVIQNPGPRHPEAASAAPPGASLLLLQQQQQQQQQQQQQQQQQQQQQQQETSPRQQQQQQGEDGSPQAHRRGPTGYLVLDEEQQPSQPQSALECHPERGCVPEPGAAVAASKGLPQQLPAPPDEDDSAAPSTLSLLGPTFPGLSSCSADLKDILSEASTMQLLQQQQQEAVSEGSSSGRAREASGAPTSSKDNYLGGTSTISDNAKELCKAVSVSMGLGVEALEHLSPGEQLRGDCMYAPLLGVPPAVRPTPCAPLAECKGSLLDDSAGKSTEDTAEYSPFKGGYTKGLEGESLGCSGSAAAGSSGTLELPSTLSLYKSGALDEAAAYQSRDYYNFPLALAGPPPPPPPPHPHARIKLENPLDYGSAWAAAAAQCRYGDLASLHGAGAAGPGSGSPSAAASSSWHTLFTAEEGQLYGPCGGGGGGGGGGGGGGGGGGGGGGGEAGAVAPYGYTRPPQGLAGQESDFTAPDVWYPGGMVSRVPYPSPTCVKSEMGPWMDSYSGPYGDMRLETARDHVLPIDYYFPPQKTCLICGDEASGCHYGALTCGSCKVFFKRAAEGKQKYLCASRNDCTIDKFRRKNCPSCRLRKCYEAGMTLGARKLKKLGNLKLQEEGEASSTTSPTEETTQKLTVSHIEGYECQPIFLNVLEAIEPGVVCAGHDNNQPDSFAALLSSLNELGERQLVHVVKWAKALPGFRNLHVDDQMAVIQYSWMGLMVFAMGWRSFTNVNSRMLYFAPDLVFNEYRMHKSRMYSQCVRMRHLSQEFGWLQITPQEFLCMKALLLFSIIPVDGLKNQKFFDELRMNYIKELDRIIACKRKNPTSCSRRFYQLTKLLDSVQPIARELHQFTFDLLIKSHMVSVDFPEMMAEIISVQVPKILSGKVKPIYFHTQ
Description: Reduction in DHT-induced Androgen receptor activity.

The target of test [2] is T1, Androgen receptor (Homo sapiens). Briefly: Antagonistic activity against Androgen receptor in DU-145 human prostate cancer cells. It counts as functional, cell-based.
Test [3] has the same target. Briefly: Antagonistic activity against Androgen receptor in PC-3 human prostate cancer cells. It counts as functional, cell-based.

Molecules are shown by their SMILES.

As for `COc1ccc(CCC(=O)CC(O)CCc2ccc(OC)c(OC)c2)cc1OC` (stereo unspecified), in test [1], the Reduction amounted to 18%.

For `COc1ccc(/C=C/C(=O)/C=C(O)/C=C/c2ccc(OC)c(OC)c2)cc1OC`, the Reduction in test [2] turned out to be 45%; in test [3], 70%.

The molecule `CCOC(O)=C(C(=O)/C=C/c1ccc(O)c(OC)c1)C(=O)/C=C/c1ccc(O)c(OC)c1` had a Reduction in test [2] of 53.8%.

In the case of `COC(=O)COc1ccc(/C=C/C(=O)/C=C(O)/C=C/c2ccc(OCC(=O)OC)c(OC)c2)cc1OC`, the Reduction in test [2] was 54%.

In turn, `COc1ccc(CCC(=O)CC(=O)CCc2ccc(OC)c(OC)c2)cc1OC` gave a Reduction in test [1] of 18%.
